The source of these data is patent US10557118B2, “Compositions and methods for prevention or treatment of neoplastic disease in a mammalian subject” (The Government of the USA, as represented by the Secretary, …, priority 2006, dated 2020).

For assay [1], the system named is RCC reactive SAUJ T-cell clone. The experiment in a line: ELISA of IFN-gamma production by RCC reactive CTL co-cultured with peptide-pulsed COS7-A11 cells. Format: cell-based, human. How it is done: COS7-A11 cells were pulsed with varying concentrations of each peptide then screened for their ability to induce IFN-gamma production by RCC reactive CTL. The 10 mer Pep-A104-K133 (ATFLGSLTWK) (SEQ ID NO: 1) induced dose dependent IFN-gamma production first evident in the 1 nM concentration range consistent with this peptide being the antigenic HLA-A11 restricted antigen recognized by the RCC reactive SAUJ T-cell clone.
Cultured T-cell lines or T cell clones were added to target cells in round-bottom 96-well plates. After 24 hours co culture at 37° C., 50 μL of supernatants was collected to measure IFN-g or GM-CSF secretion by ELISA (ENDOGEN, Woburn, Mass.) in duplicate assays. The concentration of reagents and the ELISA procedure recommended by ENDOGEN was followed without deviation. Absorbance was detected at 450 nm using an ELISA reader (VICTOR3 Multilabel counter; Perkin Elmer, Wellesley, Mass.) and data were calculated based on the standard curve generated from commercial recombinant human IFN-g or GM-CSF standards (ENDOGEN).
A total of 8 peptides (three 9-mers and five 10-mers) from the common sequence of CT-RCC 8 and CT-RCC 9 were synthesized and purchased from Genemed Synthesis, Inc. The identity and purity of each of the peptides were confirmed by mass spectrometer and high-performance liquid chromatography analysis. […]

The test system of a further assay is HLA A-11. The assay is described as follows: Binding of epitope to HLA A-11. The arrangement: species or system human. As to conditions: compared with the other epitopes.

Turning to “ATFLGSLTWK [Pep-A104-K133, HLA-A11-restricted 10-mer peptide from the common region of CT-RCC 8 and CT-RCC 9]”, the “concentration range at which dose dependent IFN-gamma production is first evident” value in assay [1] (COS7-A11 cells pulsed with varying peptide concentrations (0.1 to 10000 nM), SAUJ-CTL clone BZ-4) was about 1 nM. In assay [1] (compared with the other epitopes), the “level of IFN-γ secretion by human T cells” value is reported as “highest level of IFN-γ secretion”. The “level of binding the HLA A-11” value in the assay with HLA A-11 was “highest level of binding”.
